From patent publication US12577213B2 (NINGBO COMBIREG PHARMACEUTICAL TECHNOLOGY CO., LTD., priority 2020, dated 2026)
Read-outs that look alike come from different tables or passages of the source.

Legend:
[1] = test system: A549 (non-small cell lung cancer); experiment: NCI method SRB growth inhibition, A549; format: cell-based; conditions: Homo sapiens; A549, treated 48 hours, SRB stain
Outline: (§1)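 NCI 60-line protocol, 48 h compound exposure; SRB stain, OD 515 nm. Growth % = (Ti−Tz)/(C−Tz)×100 when Ti≥Tz, else (Ti−Tz)/Tz×100. GI50 at 50, TGI at Ti=Tz, LC50 at −50.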

786-0 (renal cancer) = experiment: NCI method SRB growth inhibition, 786-0; format: cell-based; conditions: Homo sapiens; 786-0, treated 48 hours, SRB stain
Outline: as §1

HCT116 (colon cancer) = experiment: NCI method SRB growth inhibition, HCT116; format: cell-based; conditions: Homo sapiens, HCT-116; HCT116, treated 48 hours, SRB stain
Outline: as §1

K562 (leukemia) = experiment: NCI method SRB growth inhibition, K562; format: cell-based; conditions: Homo sapiens; K562, treated 48 hours, SRB stain
Outline: as §1

PC-3 (prostate cancer) = experiment: NCI method SRB growth inhibition, PC-3; format: cell-based; conditions: Homo sapiens; PC-3, treated 48 hours, SRB stain
Outline: as §1

[2] = test system: SF295 (central nervous system tumor); experiment: NCI method SRB growth inhibition, SF295; format: cell-based; conditions: Homo sapiens, SF-295; SF295, treated 48 hours, SRB stain
Outline: as §1

OVCAR-3 (ovarian cancer) = experiment: NCI method SRB growth inhibition, OVCAR-3; format: cell-based; conditions: Homo sapiens; OVCAR-3, treated 48 hours, SRB stain
Outline: as §1

HS 578T (breast cancer) = experiment: NCI method SRB growth inhibition, HS 578T; format: cell-based; conditions: Homo sapiens, HS578T, treated 48 hours, SRB stain
Outline: as §1

[3] = Liver microsomes stability; format: in vitro ADME, human; conditions: for half-life at 1 μM: human, human liver microsomes
Outline: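 Compound at 1 μM final incubated with 1 mg/mL human liver microsomes and 1 mM NADPH (no-NADPH control), sampled at 0, 5, 15, 30, 60 min. Remaining parent quantified by LC-MS/MS; T1/2 = 0.693/k.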

[4] = Metabolic stability in vivo (plasma half-life after IV); conditions: mouse, plasma, iv; intravenously at 1 mg/kg, male BALB/c nude mice; read-out: T½ of (IV in nude mice) (converted)
Description: The intravenous injection group of the embodiment compound was prepared with the mixed solvent of DMA:PEG400:30% SBECD=5:25:70 to form a 0.2 mg/mL of solution, and administered intravenously at 1 mg/kg of weight; and the oral preparation group was prepared with 0.5% MC to form a 1 mg/mL of solution, and administered by oral gavage at 10 mg/kg weight.
• Male BALB/c nude mice, 4-5 weeks old, purchased from Shanghai SLAC. 3. Experiment Method: 3.1 Instruments: • Liquid chromatography system: Shimadzu liquid chromatography system Shimadzu LC-30AD • MS/MS system: Applied Biosystems API5500 • Data collection: Analyst Software 1.5.2 3.2 Chromatographic Conditions Chromatographic Column • Analytical column: Kinetex 2.6u C18 100 A column (3.0 mm×30 mm) • Mobile phase: A: 10 mM NH4OAc (0.1% FA); B: Acetonitrile with 0.1% […] • Flow rate: 1.0 mL/min
Ion source was an electron spray ionization (ESI source) with negative ion detection; spray voltage source was 5500 V; ion source gas 1 (N2) was 50 psi; ion source gas 2 (N2) was 50 psi; air curtain gas (N2) was 30 psi. Scanning mode was multiple reaction monitoring (MRM); scanning time was 80 ms; collision gas pressure was 10 psi;
Grouping experiment, with three animals in each group, starting from now on, administration was started according to the weight of the animals. Blood was collected according to 5 min, 15 min, 30 min, 1 h, 2 h, 4 h, 8 h and 24 h after administration.
To 25.0 μL of plasma, 25.0 μL of internal standard solution (Tolbutamide (250 ng/mL) in acetonitrile), 25.0 μL of acetonitrile and 100 μL of acetonitrile were added, and the mixture was vortexed for 1 min, and centrifuged for 5 min (14000 rpm). 120 μL of the resulting supernatant was added with 80.0 μL of water (containing 1% formic acid) and mixed well, then analyzed by LC/MS/MS.

[5] = 1 μM compound, 1 mg/mL human liver microsomes, 1 mM NADPH
[6] = 1 μM compound, 1 mg/mL human liver microsomes, 1 mM NADPH, read-out: T½ of HLM
[7] = as repeated in Table 4, read-out: T½ of HLM (in vitro)

microsomal CLint at 1 μM [3, 5] [µL/min/mg]	half-life at 1 μM [3, 6] [h]	half-life at 1 μM [3, 7] [h]	half-life [4] [h]	Structure (SMILES)	GI50 [1] [nM]	GI50 (786-0 (renal cancer)) [nM]	GI50 (HCT116 (colon cancer)) [nM]	GI50 (K562 (leukemia)) [nM]	GI50 (PC-3 (prostate cancer)) [nM]	GI50 [2] [nM]	GI50 (OVCAR-3 (ovarian cancer)) [nM]	GI50 (HS 578T (breast cancer)) [nM]
3.2	3.62	3.62	1.52	[2H]C([2H])([2H])Oc1cc(C(=O)Nc2cc3c(cc2Oc2cc(C)cc(C)c2)C(=O)N[C@@H](CC(=O)N(C([2H])([2H])C([2H])([2H])[2H])C([2H])([2H])C([2H])([2H])[2H])C(=O)N3)c(Br)c(OC([2H])([2H])[2H])c1OC([2H])([2H])[2H] [Compound 5, (S)-2-bromo-N-[3-[2-[bis(pentadeuteroethyl)amino]-2-oxoethyl]-7-(3,5-dimethylphenoxy)-2,5-dioxo-2,3,4,5-tetrahydro-1H-benzo[e][1,4]diazepin-8-yl]-3,4,5-tris(trideuteromethoxy)benzamide]	< 5	26.1	< 5	< 5	< 5	17.4	< 5	< 5
11.6	0.948	0.997	0.585	[2H]C([2H])([2H])Oc1cc(C(=O)Nc2cc3c(cc2Oc2cc(C)cc(C)c2)C(=O)N(C)[C@@H](CC(=O)N(C)C)C(=O)N3)c(Br)c(OC([2H])([2H])[2H])c1OC([2H])([2H])[2H] [Compound 16, (S)-2-bromo-N-[3-[2-(dimethylamino)-2-oxoethyl]-7-(3,5-dimethylphenoxy)-4-methyl-2,5-dioxo-2,3,4,5-tetrahydro-1H-benzo[e][1,4]diazepin-8-yl]-3,4,5-tris(trideuteromethoxy)benzamide]	< 5	11.2	< 5	< 5	< 5	7.6	< 5	< 5
2.1	5.5	5.5	0.8	[2H]C([2H])([2H])Oc1cc(C(=O)Nc2cc3c(cc2Oc2cc(C)cc(C)c2)C(=O)N[C@@H](CC(=O)N(C)C)C(=O)N3)c(Br)c(OC([2H])([2H])[2H])c1OC([2H])([2H])[2H] [Compound 20, (S)-2-bromo-N-[3-[2-(dimethylamino)-2-oxoethyl]-7-(3,5-dimethylphenoxy)-2,5-dioxo-2,3,4,5-tetrahydro-1H-benzo[e][1,4]diazepin-8-yl]-3,4,5-tris(trideuteromethoxy)benzamide]	< 5	26.5	< 5	< 5	< 5	19.9	< 5	< 5
